Usually IC50 stands for the midpoint of a concentration-inhibition curve.

For 13 molecules, IC50 results are on record in patent US20260297085A1, “1 H-PYRROLO[2,3-B]PYRIDIN-4-YL]-2-OXOPYRROLIDINE-3-CARBONITRILE DERIVATIVES AS TYROSINE KINASE 2 (TYK2) INHIBITORS FOR THE TREATMENT OF INFLAMMATORY DISEASES” (BIOGEN MA INC., priority 2023, published 2026).

Counter-ions that a name gives are not always drawn. Some results are limits rather than exact numbers.

Assay [1] addresses T1, human JAK3 kinase domain (JH1) (Homo sapiens, UniProt P52333).
T1 construct: recombinantly generated catalytic kinase (also known as JH1) domain of human JAK1, JAK2, JAK3 and TYK2
Nature of the assay: JH1 biochemical assay for JAK3 (ADP-Glo kinase assay, recombinant JH1 catalytic domain, JAK3-974 peptide, 4 μM ATP). To be noted: JH1 kinase domain, ADP-Glo. Put shortly: (§1)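 Compounds were titrated in 11 points of 3-fold dilution starting at 10 μM or 1 μM. Enzyme (JAK1 4 nM, JAK2 0.2 nM, JAK3 0.3 nM, TYK2 2 nM) and 50 μM peptide reacted for 100 minutes, followed by ADP-to-luminescence detection; IC50 by 4-parameter fit.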

Assay [2] concerns the target T2, human JAK2 kinase domain (JH1) (Homo sapiens, UniProt O60674).
T2 construct: recombinantly generated catalytic kinase (also known as JH1) domain of human JAK1, JAK2, JAK3 and TYK2
Nature of the assay: JH1 biochemical assay for JAK2 (ADP-Glo kinase assay, recombinant JH1 catalytic domain, JAK3-974 peptide, 15 μM ATP). Conditions: JH1 kinase domain, ADP-Glo. In short, it runs like this: as §1
(ADP-Glo turns the ADP formed in a reaction into a luminescent signal.)

In assay [3] the target is Tyk2 kinase activity on STAT4 in NK92 cells (Homo sapiens, UniProt P29597). Nature of the assay: pSTAT4 cell assay (MSD; NK92 cells, 30 ng/mL IL2 stimulation). Type of assay: cell-based. To be noted: 30 ng/mL IL2, 15 minutes. In short, it runs like this: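 IC50 values derive from 4-parameter logistic fits of normalized percent activity against log compound concentration. Phospho-STAT was measured by MSD with anti-STAT4 antibodies after 15 min of 30 ng/mL IL2 in serum-starved NK92 cells pretreated 1 hr with compound.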

The target in assay [4] is JAK2 kinase activity on STAT5 in TF1 cells (Homo sapiens, UniProt O60674). In words: pSTAT5 cell assay (MSD; TF1 cells, 30 ng/mL IL-3 stimulation). Format: cell-based. Conditions: 30 ng/mL IL-3, 15 minutes. The protocol:
The inhibitory potency of compounds of the disclosure against the JAK2 kinase activity on STAT5 was evaluated using an MSD-platform plate-based assay format. TF1 cells natively expressing STAT5 and JAK2 were serum-starved to reduce background phosphorylation levels, then cells were treated with compounds of disclosure for 1 hour with a 10-point four-fold dilution series starting at 10 μM. Cells were then stimulated with 30 ng/mL IL-3 for 15 minutes. Cells were then lysed and pSTAT5 levels were quantitated using an MSD plate-based assay with anti-STAT5 antibodies. The data were normalized and the percent activity versus log concentration of compound was fitted with a 4-parameter logistic model to generate a curve and an IC50 value.

For assay [5], the target named is JAK1 kinase activity on STAT3 in TF1 cells (Homo sapiens, UniProt P23458). Nature of the assay: pSTAT3 cell assay (MSD; TF1 cells, 30 ng/mL IL-6 stimulation). Type of assay: cell-based. Conditions: 30 ng/mL IL-6, 15 minutes. On the procedure:
The inhibitory potency of compounds of the disclosure against the JAK1 kinase activity on STAT3 was evaluated using an MSD-platform plate-based assay format. TF1 cells natively expressing STAT3 and JAK1 were serum-starved to reduce background phosphorylation levels, then cells were treated with compounds of the disclosure for 1 hour with a 10-point four-fold dilution series starting at 10 μM. Cells were then stimulated with 30 ng/mL interleukin 6 (IL-6) for 15 minutes. Cells were lysed and pSTAT3 levels were quantitated using an MSD plate-based assay with anti-STAT3 antibodies. The data were normalized and the percent activity versus log concentration of compound was fitted with a 4-parameter logistic model to generate IC50 curves.

Assay [6] has as its target T3, human JAK1 kinase domain (JH1) (Homo sapiens, UniProt P23458).
T3 construct: recombinantly generated catalytic kinase (also known as JH1) domain of human JAK1, JAK2, JAK3 and TYK2
Nature of the assay: JH1 biochemical assay for JAK1 (ADP-Glo kinase assay, recombinant JH1 catalytic domain, JAK3-342 peptide, 35 μM ATP). Conditions: JH1 kinase domain, ADP-Glo. In short, it runs like this:
as §1

Assay [7] deals with T4, human TYK2 kinase domain (JH1) (Homo sapiens, UniProt P29597).
T4 construct: recombinantly generated catalytic kinase (also known as JH1) domain of human JAK1, JAK2, JAK3 and TYK2
T4 sequence (P29597 897-1176 limits assumed): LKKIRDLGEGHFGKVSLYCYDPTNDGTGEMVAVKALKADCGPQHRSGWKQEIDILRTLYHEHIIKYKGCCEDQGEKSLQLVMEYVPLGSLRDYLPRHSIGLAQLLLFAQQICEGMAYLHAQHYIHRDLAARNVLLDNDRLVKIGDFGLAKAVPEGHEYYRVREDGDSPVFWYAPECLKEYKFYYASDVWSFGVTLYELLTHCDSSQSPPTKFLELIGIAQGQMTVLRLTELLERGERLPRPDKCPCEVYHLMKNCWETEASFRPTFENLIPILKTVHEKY
Nature of the assay: JH1 biochemical assay for TYK2 (ADP-Glo kinase assay, recombinant JH1 catalytic domain, JAK3-974 peptide, 10 μM ATP). To be noted: JH1 kinase domain, ADP-Glo. Put shortly:
as §1

T1 sequence (P52333 822-1111 limits assumed): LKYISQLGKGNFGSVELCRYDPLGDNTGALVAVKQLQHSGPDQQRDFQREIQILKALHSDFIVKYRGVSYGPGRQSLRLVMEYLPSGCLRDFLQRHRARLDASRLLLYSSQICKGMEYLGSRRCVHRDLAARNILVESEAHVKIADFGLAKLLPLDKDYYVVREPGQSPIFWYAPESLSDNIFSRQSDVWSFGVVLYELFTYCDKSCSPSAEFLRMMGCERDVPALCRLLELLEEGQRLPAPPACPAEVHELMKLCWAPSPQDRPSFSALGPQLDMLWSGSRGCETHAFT
Chain of JAK1 kinase activity on STAT3 in TF1 cells (P23458 whole entry): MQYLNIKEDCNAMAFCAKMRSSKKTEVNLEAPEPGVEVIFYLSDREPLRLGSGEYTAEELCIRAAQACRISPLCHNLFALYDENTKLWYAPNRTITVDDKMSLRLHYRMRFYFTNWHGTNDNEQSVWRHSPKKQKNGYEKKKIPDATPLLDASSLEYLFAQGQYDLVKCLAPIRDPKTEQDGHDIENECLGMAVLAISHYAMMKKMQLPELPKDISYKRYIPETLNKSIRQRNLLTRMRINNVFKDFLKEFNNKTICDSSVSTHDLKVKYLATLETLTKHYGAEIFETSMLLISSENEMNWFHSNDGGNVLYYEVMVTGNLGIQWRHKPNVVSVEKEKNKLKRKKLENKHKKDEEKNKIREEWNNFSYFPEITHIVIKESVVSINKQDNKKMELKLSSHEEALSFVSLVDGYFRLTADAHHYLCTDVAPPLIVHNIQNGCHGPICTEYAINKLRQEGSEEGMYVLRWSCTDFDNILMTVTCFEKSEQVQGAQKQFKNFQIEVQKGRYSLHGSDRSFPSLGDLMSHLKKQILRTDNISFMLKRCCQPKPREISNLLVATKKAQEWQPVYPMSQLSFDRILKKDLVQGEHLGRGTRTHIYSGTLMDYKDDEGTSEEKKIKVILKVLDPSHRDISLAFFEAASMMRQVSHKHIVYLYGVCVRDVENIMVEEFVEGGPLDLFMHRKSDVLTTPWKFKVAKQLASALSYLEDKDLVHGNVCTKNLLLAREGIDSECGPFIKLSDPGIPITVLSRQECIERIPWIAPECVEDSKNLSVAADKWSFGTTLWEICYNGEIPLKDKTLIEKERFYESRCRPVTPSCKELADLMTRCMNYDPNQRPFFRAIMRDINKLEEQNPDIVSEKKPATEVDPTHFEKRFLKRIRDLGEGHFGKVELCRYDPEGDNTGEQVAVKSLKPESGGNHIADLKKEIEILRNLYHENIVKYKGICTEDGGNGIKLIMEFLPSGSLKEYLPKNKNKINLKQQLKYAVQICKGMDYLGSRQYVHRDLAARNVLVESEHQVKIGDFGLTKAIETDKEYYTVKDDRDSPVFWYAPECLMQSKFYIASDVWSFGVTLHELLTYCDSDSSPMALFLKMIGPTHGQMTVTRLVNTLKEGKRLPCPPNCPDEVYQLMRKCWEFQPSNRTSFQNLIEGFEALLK
T2 sequence (O60674 849-1124 limits assumed): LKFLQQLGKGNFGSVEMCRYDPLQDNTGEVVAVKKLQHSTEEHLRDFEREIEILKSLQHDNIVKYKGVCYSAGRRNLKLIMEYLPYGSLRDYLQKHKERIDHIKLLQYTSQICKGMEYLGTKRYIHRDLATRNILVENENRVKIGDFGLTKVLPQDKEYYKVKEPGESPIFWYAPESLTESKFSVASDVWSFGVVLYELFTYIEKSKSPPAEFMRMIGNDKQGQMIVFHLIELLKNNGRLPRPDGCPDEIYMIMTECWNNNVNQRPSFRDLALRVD
Chain of JAK2 kinase activity on STAT5 in TF1 cells (O60674 whole entry): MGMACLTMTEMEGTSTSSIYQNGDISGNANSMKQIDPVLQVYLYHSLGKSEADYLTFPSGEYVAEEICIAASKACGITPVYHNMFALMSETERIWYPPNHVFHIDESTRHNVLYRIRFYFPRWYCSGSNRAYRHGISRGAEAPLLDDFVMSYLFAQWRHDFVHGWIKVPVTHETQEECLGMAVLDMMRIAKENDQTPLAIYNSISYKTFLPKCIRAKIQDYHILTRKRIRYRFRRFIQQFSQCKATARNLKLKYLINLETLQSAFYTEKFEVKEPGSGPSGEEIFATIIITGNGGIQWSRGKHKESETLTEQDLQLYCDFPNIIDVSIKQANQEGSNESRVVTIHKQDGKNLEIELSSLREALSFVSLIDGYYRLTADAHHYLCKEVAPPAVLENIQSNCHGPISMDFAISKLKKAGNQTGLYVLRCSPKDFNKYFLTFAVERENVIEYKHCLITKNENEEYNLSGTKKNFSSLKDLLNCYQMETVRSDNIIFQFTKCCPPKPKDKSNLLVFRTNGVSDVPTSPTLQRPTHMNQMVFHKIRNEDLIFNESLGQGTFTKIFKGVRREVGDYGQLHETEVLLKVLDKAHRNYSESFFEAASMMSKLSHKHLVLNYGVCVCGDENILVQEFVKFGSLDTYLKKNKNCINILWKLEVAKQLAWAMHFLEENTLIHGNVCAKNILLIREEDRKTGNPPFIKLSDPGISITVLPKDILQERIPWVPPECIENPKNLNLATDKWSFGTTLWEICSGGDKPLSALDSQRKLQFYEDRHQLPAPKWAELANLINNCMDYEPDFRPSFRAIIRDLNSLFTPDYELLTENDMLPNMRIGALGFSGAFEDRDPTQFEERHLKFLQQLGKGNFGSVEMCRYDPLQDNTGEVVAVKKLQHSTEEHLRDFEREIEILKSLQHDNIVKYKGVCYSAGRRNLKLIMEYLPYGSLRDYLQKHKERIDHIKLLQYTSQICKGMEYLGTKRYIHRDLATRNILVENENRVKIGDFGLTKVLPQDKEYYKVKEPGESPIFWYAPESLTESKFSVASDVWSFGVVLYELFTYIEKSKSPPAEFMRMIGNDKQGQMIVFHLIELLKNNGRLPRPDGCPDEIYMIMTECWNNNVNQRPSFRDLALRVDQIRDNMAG
Chain of Tyk2 kinase activity on STAT4 in NK92 cells (P29597 whole entry): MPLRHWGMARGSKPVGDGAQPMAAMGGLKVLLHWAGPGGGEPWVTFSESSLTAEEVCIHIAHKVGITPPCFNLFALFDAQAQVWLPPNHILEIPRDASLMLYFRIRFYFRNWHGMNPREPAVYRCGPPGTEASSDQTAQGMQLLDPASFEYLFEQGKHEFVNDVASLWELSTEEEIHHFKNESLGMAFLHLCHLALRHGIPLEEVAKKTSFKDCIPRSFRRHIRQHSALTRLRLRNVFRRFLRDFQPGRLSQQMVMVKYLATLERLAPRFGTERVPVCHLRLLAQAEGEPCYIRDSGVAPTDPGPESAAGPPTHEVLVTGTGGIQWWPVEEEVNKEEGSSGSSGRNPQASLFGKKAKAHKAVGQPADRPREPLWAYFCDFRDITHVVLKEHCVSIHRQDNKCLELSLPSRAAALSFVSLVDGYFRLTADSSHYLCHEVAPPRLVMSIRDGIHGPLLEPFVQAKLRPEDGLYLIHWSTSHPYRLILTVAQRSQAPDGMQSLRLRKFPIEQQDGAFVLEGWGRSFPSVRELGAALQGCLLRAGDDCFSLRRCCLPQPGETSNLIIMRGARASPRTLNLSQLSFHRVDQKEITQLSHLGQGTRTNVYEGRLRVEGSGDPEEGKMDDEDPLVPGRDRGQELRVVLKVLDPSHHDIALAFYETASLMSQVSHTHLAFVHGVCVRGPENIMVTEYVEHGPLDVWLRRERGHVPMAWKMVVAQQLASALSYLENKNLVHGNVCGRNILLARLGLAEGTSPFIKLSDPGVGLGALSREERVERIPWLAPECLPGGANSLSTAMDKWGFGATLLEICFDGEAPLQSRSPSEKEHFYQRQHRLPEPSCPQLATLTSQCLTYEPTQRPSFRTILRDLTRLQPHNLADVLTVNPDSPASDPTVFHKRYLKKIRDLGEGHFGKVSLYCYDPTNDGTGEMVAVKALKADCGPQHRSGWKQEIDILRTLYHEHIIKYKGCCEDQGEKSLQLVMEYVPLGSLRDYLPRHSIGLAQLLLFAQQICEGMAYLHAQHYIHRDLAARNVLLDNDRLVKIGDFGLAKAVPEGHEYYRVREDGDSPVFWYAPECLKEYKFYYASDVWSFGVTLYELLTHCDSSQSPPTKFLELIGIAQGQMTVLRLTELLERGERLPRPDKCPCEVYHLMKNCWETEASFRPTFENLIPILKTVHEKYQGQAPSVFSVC
T3 sequence (P23458 875-1153 limits assumed): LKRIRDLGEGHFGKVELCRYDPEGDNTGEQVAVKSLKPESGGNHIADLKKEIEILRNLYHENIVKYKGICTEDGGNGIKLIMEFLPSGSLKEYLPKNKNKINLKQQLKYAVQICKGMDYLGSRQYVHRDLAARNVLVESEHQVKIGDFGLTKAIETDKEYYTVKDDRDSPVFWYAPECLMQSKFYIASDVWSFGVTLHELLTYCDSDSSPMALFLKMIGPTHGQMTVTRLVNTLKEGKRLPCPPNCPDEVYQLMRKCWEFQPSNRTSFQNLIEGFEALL

Consider `C[C@@H]1CN(c2ccnn3cc(-c4cccc5c4cnn5C)cc23)C(=O)[C@]1(C#N)C1CC1` [Example 54, (3R,4S)-3-cyclopropyl-4-methyl-1-(6-(1-methyl-1H-indazol-4-yl)pyrrolo[1,2-b]pyridazin-4-yl)-2-oxopyrrolidine-3-carbonitrile], for which the IC50 in assay [1] was 100 to 1000 nM; in assay [2], 1000 to 5000 nM; in assay [3], more than 100 nM; in assay [4], more than 10 µM; in assay [5] it was 5 to 10 µM; in assay [6] it was 100 to 1000 nM. Besides, the IC50 in assay [7] was 5 to 20 nM.
For the molecule `C[C@@H]1CN(c2ccnn3cc(-c4ccc5c(cnn5C)c4)cc23)C(=O)[C@]1(C#N)C1CC1` [Example 55, (3R,4S)-3-cyclopropyl-4-methyl-1-(6-(1-methyl-1H-indazol-5-yl)pyrrolo[1,2-b]pyridazin-4-yl)-2-oxopyrrolidine-3-carbonitrile], the concentration for half-maximal inhibition (IC50) in assay [1] was 100 to 1000 nM; in assay [2], 100 to 1000 nM; in assay [3], 5 to 20 nM; in assay [4] it was 1 to 5 µM; in assay [5], 0.1 to 1 µM; in assay [6], less than 100 nM. Further, in assay [7], the IC50 was less than 5 nM.
As to `C[C@@H]1CN(c2ccnn3cc(-c4cccnc4F)cc23)C(=O)[C@]1(C#N)C1CC1` [Example 56, (3R,4S)-3-cyclopropyl-1-(6-(2-fluoropyridin-3-yl)pyrrolo[1,2-b]pyridazin-4-yl)-4-methyl-2-oxopyrrolidine-3-carbonitrile], the IC50 is 100 to 1000 nM in assay [1]; 100 to 1000 nM in assay [2]; more than 100 nM in assay [3]; more than 10 µM in assay [4]; 5 to 10 µM in assay [5]; 100 to 1000 nM in assay [6]. Besides, the IC50 in assay [7] lay within 5 to 20 nM.
As to `C[C@@H]1CN(c2ccnn3cc(-c4ccc5ncnn5c4)cc23)C(=O)[C@]1(C#N)C1CC1` [Example 57, (3R,4S)-1-(6-([1,2,4]triazolo[1,5-a]pyridin-6-yl)pyrrolo[1,2-b]pyridazin-4-yl)-3-cyclopropyl-4-methyl-2-oxopyrrolidine-3-carbonitrile], the IC50 in assay [1] was 100 to 1000 nM; in assay [2] it was 100 to 1000 nM; in assay [3], more than 100 nM; in assay [4], more than 10 µM; in assay [5], 1 to 5 µM; in assay [6], 100 to 1000 nM. The IC50 in assay [7] is 5 to 20 nM.
As to `CNC(=O)c1ccc(-c2cc3c(N4C[C@@H](C)[C@@](C#N)(C5CC5)C4=O)ccnn3c2)cn1` [Example 58, 5-(4-((3R,4S)-3-cyano-3-cyclopropyl-4-methyl-2-oxopyrrolidin-1-yl)pyrrolo[1,2-b]pyridazin-6-yl)-N-methylpicolinamide], the IC50 was 100 to 1000 nM in assay [1]; 100 to 1000 nM in assay [2]; 50 to 100 nM in assay [3]; more than 10 µM in assay [4]; 1 to 5 µM in assay [5]; 100 to 1000 nM in assay [6]. Moreover, in assay [7], the IC50 is 5 to 20 nM.
`C[C@@H]1CN(c2ccnn3cc(-c4cn[nH]c4)cc23)C(=O)[C@]1(C#N)C1CC1` [Example 59, (3R,4S)-1-(6-(1H-pyrazol-4-yl)pyrrolo[1,2-b]pyridazin-4-yl)-3-cyclopropyl-4-methyl-2-oxopyrrolidine-3-carbonitrile trifluoroacetate]: the IC50 in assay [1] was 100 to 1000 nM; in assay [2], 100 to 1000 nM; in assay [3], 50 to 100 nM; in assay [4] it was 5 to 10 µM; in assay [5], 1 to 5 µM; in assay [6], less than 100 nM. In assay [7], the IC50 is less than 5 nM.
Regarding `C[C@@H]1CN(c2ccnn3cc(-c4cccnc4)cc23)C(=O)[C@]1(C#N)C1CC1` [Example 60, (3R,4S)-3-cyclopropyl-4-methyl-2-oxo-1-(6-(pyridin-3-yl)pyrrolo[1,2-b]pyridazin-4-yl)pyrrolidine-3-carbonitrile], the IC50 in assay [1] is 100 to 1000 nM; in assay [2], 100 to 1000 nM; in assay [3], more than 100 nM; in assay [4] it was more than 10 µM; in assay [5], 1 to 5 µM; in assay [6], 100 to 1000 nM. Further, in assay [7], the IC50 lay within 5 to 20 nM.
As for `CC(=O)Nc1cc(-c2cc3c(N4C[C@@H](C)[C@@](C#N)(C5CC5)C4=O)ccnn3c2)ccn1` [Example 61, N-(4-(4-((3R,4S)-3-cyano-3-cyclopropyl-4-methyl-2-oxopyrrolidin-1-yl)pyrrolo[1,2-b]pyridazin-6-yl)pyridin-2-yl)acetamide], the IC50 in assay [1] was 100 to 1000 nM; in assay [2], 100 to 1000 nM; in assay [3], 20 to 50 nM; in assay [4] it was 5 to 10 µM; in assay [5], 0.1 to 1 µM; in assay [6] it was less than 100 nM. Besides, the IC50 in assay [7] is less than 5 nM.
In the case of `C[C@@H]1CN(c2ccnn3cc(-c4ccc(N(C)C)nc4)cc23)C(=O)[C@]1(C#N)C1CC1` [Example 62, (3R,4S)-3-cyclopropyl-1-(6-(6-(dimethylamino)pyridin-3-yl)pyrrolo[1,2-b]pyridazin-4-yl)-4-methyl-2-oxopyrrolidine-3-carbonitrile], the IC50 in assay [1] fell in the range of 100 to 1000 nM; in assay [2] it was 100 to 1000 nM; in assay [3], 50 to 100 nM; in assay [4], 1 to 5 µM; in assay [5], 1 to 5 µM; in assay [6] it was 100 to 1000 nM. Moreover, in assay [7], the IC50 is less than 5 nM.
Consider `C[C@@H]1CN(c2ccnn3cc(-c4ccn(C)n4)cc23)C(=O)[C@]1(C#N)C1CC1` [Example 63, (3R,4S)-3-cyclopropyl-4-methyl-1-(6-(1-methyl-1H-pyrazol-3-yl)pyrrolo[1,2-b]pyridazin-4-yl)-2-oxopyrrolidine-3-carbonitrile], for which the IC50 was 100 to 1000 nM in assay [1]; 100 to 1000 nM in assay [2]; more than 100 nM in assay [3]; more than 10 µM in assay [4]; more than 10 µM in assay [5]; 100 to 1000 nM in assay [6]. Besides, the IC50 in assay [7] was in the range of 5 to 20 nM.
For the molecule `C[C@@H]1CN(c2ccnn3cc(-c4cnc5[nH]ccc5c4)cc23)C(=O)[C@]1(C#N)C1CC1` [Example 64, (3R,4S)-1-(6-(1H-pyrrolo[2,3-b]pyridin-5-yl)pyrrolo[1,2-b]pyridazin-4-yl)-3-cyclopropyl-4-methyl-2-oxopyrrolidine-3-carbonitrile], the IC50 fell in the range of 100 to 1000 nM in assay [1]; 100 to 1000 nM in assay [2]; 50 to 100 nM in assay [3]; 5 to 10 µM in assay [4]; 1 to 5 µM in assay [5]; 100 to 1000 nM in assay [6]. In addition, in assay [7], the IC50 lay in the range of 5 to 20 nM.
For the molecule `COc1cc(-c2cc3c(N4C[C@@H](C)[C@@](C#N)(C5CC5)C4=O)ccnn3c2)ccn1` [Example 65, (3R,4S)-3-cyclopropyl-1-(6-(2-methoxypyridin-4-yl)pyrrolo[1,2-b]pyridazin-4-yl)-4-methyl-2-oxopyrrolidine-3-carbonitrile], the IC50 was 100 to 1000 nM in assay [1]; 100 to 1000 nM in assay [2]; 50 to 100 nM in assay [3]; more than 10 µM in assay [4]; 1 to 5 µM in assay [5]; 100 to 1000 nM in assay [6]. The IC50 in assay [7] is 5 to 20 nM.
In the case of `C[C@@H]1CN(c2ccnn3cc(-c4cc[nH]n4)cc23)C(=O)[C@]1(C#N)C1CC1` [Example 66, (3R,4S)-1-(6-(1H-pyrazol-3-yl)pyrrolo[1,2-b]pyridazin-4-yl)-3-cyclopropyl-4-methyl-2-oxopyrrolidine-3-carbonitrile trifluoroacetate], the IC50 in assay [1] was 100 to 1000 nM; in assay [2], 100 to 1000 nM; in assay [3], more than 100 nM; in assay [4], more than 10 µM; in assay [5] it was 5 to 10 µM; in assay [6], 100 to 1000 nM. The IC50 in assay [7] was in the range of 5 to 20 nM.
